Data set [1] concerns Canis familiaris. Put plainly: Induction of QTc interval prolongation in anesthetized dog at 5 mg/kg administered intraduodenally after 1 to 4 hrs. The following applies: in vivo, other. Format: organism-based, Canis lupus familiaris.
In data set [2] the test system is Canis familiaris. Put plainly: Anti-atrial fibrillation activity in bilateral vagal stimulated anesthetized dog assessed as time duration of atrial fibrillation at 100 ms of basic cycle length at 5 mg/kg administered intraduodenally measured after 2 hrs. In kind it is functional, Canis lupus familiaris.
The subject of data set [3] is Cardiac muscle cell. Put plainly: Increase in reverse rate-dependent action potential duration at 50% repolarization in human atrial myocytes at 0.5 to 2 Hz at 50 uM by whole cell patch clamp method. In kind it is functional, cell-based. In general terms: The patch-clamp technique gives a direct electrical read-out from membranes.
In data set [4] the test system is Cardiac muscle cell. Nature of the data set: Increase in reverse rate-dependent action potential duration at 75% repolarization in human atrial myocytes at 0.5 to 2 Hz at 50 uM by whole cell patch clamp method. Format: functional, cell-based.
Data set [5] has as its system Cardiac muscle cell. Put plainly: Increase in reverse rate-dependent action potential duration at 90% repolarization in human atrial myocytes at 0.5 to 2 Hz at 50 uM by whole cell patch clamp method. Format: functional, cell-based.
The test system of data set [6] is Cardiac muscle cell. Put plainly: Prolongation of action potential duration in human atrial myocytes at 2 Hz at 5 to 10 uM by whole cell patch clamp method. Format: functional, cell-based.
Data set [7] in a line: Effect on resting membrane potential in human atrial myocytes at 5 to 10 uM by whole cell patch clamp method. The following applies: cardiac muscle cell. In kind it is cell-based.
In data set [8] the target is Potassium voltage-gated channel subfamily A member 5 (Homo sapiens) (UniProt P22460). Put plainly: Inhibition of Kv1.5 in human atrial myocytes assessed as decrease in ultra rapidly activating delayed rectifier potassium current amplitude at 3 uM after 8 mins by whole cell patch clamp method. Format: cell-based.
Data set [9] has the same target. Put plainly: Inhibition of Kv1.5 in human atrial myocytes assessed as decrease in ultra rapidly activating delayed rectifier potassium tail and step current amplitude at 3 to 30 uM by whole cell patch clamp method. Format: cell-based.
Data set [10] shares this target. Nature of the data set: Inhibition of Kv1.5 in human atrial myocytes assessed as decrease in ultra rapidly activating delayed rectifier potassium current amplitude at 40 mV by whole cell patch clamp method. Format: cell-based.
Data set [11] addresses T1, A-type voltage-gated potassium channel KCND3 (Homo sapiens, UniProt Q9UK17).
T1 sequence (Q9UK17 whole entry): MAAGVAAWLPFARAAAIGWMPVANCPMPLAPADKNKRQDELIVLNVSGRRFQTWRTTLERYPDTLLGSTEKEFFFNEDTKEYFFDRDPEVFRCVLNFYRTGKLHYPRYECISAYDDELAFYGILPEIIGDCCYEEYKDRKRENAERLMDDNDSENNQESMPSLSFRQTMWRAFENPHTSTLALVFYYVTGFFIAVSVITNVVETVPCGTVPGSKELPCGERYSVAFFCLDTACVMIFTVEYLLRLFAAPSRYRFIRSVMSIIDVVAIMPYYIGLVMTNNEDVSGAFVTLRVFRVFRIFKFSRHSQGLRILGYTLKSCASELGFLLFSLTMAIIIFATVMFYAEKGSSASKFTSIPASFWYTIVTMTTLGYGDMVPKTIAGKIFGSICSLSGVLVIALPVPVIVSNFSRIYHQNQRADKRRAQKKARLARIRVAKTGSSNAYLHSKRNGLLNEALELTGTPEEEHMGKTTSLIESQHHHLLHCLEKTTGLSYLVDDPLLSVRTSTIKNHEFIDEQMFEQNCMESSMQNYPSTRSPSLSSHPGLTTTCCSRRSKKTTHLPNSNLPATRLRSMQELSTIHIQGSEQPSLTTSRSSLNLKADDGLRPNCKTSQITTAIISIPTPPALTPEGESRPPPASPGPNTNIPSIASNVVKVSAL
Nature of the data set: Inhibition of Kv4.3 in human atrial myocytes assessed as decrease in transient outward potassium current amplitude at 3 to 10 uM by whole cell patch clamp method. In kind it is cell-based.

The target in data set [12] is T1, A-type voltage-gated potassium channel KCND3. Put plainly: Inhibition of Kv4.3 in human atrial myocytes assessed as recovery time constant of transient outward potassium current amplitude at 10 uM by whole cell patch clamp method (reference value: 102 +/- 12 ms). Format: cell-based.
A short description of data set [13]: Effect on amplitude of action potential in human atrial myocytes at 5 to 10 uM by whole cell patch clamp method. In kind it is cell-based. The following applies: cardiac muscle cell.
The test system of data set [14] is Cardiac muscle cell. Put plainly: Increase in action potential duration at 50% repolarization in human atrial myocytes at 0.5 to 2 Hz at 10 uM by whole cell patch clamp method. In kind it is functional, cell-based.
Data set [15] has as its system Cardiac muscle cell. Nature of the data set: Increase in action potential duration at 75% repolarization in human atrial myocytes at 0.5 to 2 Hz at 10 uM by whole cell patch clamp method. In kind it is functional, cell-based.
The test system of data set [16] is Cardiac muscle cell. Put plainly: Increase in action potential duration at 90% repolarization in human atrial myocytes at 0.5 to 2 Hz at 10 uM by whole cell patch clamp method. Format: functional, cell-based.
The species named for data set [17] is Cavia porcellus. Put plainly: Inhibition of acetylcholine-activated potassium channel in guinea pig atrial myocytes assessed as reversal of carbachol-induced membrane conductance at 3 uM by whole cell patch clamp method. Format: cell-based.
The target of data set [18] is Voltage-gated inwardly rectifying potassium channel KCNH2 (Homo sapiens, UniProt Q12809). Nature of the data set: Inhibition of human ERG expressed in HEK293 cells assessed as decrease in current amplitude at 30 uM by whole cell patch clamp method. Conditions: hek293, 30 µM. In kind it is cell-based.
In data set [19] the target is T2, Voltage-gated potassium channel, IKs; KCNQ1(Kv7.1)/KCNE1(MinK) (Homo sapiens, UniProt P51787+P15382). Put plainly: Inhibition of human KCNQ1/KCNE1 expressed in HEK293 cells assessed as decrease in current amplitude at 30 uM by whole cell patch clamp method. Format: cell-based. Conditions: hek293, 30 µM.
The target in data set [20] is T2, Voltage-gated potassium channel, IKs; KCNQ1(Kv7.1)/KCNE1(MinK). Put plainly: Inhibition of human KCNQ1/KCNE1 expressed in HEK293 cells assessed as recovery of current amplitude at 30 uM measured after compound washout by whole cell patch clamp method. In kind it is cell-based. Further details: scale not given: the % may be the effect or the level left. Conditions: hek293, 30 µM.

Data set [21] shares this target. Nature of the data set: Inhibition of human KCNQ1/KCNE1 expressed in HEK293 cells assessed as decrease in current amplitude at +20 to +60 mV by whole cell patch clamp method. In kind it is cell-based.
The subject of data set [22] is Heart. Nature of the data set: Effect on heart rate in New Zealand white rabbit heart under hypokalemic conditions at 30 uM by electrocardiogram (reference value: 157 to 175 /min). Format: ADME, tissue-based, Oryctolagus cuniculus.
Data set [23] has as its system Heart. Nature of the data set: Effect on QTc interval in New Zealand white rabbit heart under hypokalemic conditions at 30 uM by electrocardiogram (reference value: 304.5 to 340.1 ms). In kind it is ADME, Oryctolagus cuniculus.
Data set [24] concerns Canis familiaris. Nature of the data set: Anti-atrial fibrillation activity in anesthetized dog assessed as prolongation of effective refractory time period of left atrium at 200 to 250 ms of basic cycle length at 5 mg/kg administered intraduodenally measured after 1 to 4 hrs relative to vehicle-treated control. Format: functional, Canis lupus familiaris.
In data set [25] the test system is Canis familiaris. Put plainly: Anti-atrial fibrillation activity in bilateral vagal stimulated anesthetized dog assessed as time duration of atrial fibrillation at 100 ms of basic cycle length at 10 mg/kg administered intraduodenally. Format: functional, Canis lupus familiaris.
Data set [26] deals with Mus musculus. Nature of the data set: Acute toxicity in Kunming mouse assessed as mortality at 0.3 g/kg, po administered every 1.5 hrs for 3 times measured for 2 weeks relative to vehicle-treated control. Format: organism-based. Conditions: in vivo, 300 mg/kg, 336 h.
In data set [27] the test system is Mus musculus. Nature of the data set: Acute toxicity in Kunming mouse assessed as abnormal activity at 0.3 g/kg, po administered every 1.5 hrs for 3 times measured for 2 weeks relative to vehicle-treated control. In kind it is organism-based. The following applies: in vivo, 300 mg/kg, 336 h.

Activity calls are given as the source filed them. The calls are words filed in the database; no cut-off is given here.

Chain of Potassium voltage-gated channel subfamily A member 5 (Homo sapiens) (P22460 whole entry): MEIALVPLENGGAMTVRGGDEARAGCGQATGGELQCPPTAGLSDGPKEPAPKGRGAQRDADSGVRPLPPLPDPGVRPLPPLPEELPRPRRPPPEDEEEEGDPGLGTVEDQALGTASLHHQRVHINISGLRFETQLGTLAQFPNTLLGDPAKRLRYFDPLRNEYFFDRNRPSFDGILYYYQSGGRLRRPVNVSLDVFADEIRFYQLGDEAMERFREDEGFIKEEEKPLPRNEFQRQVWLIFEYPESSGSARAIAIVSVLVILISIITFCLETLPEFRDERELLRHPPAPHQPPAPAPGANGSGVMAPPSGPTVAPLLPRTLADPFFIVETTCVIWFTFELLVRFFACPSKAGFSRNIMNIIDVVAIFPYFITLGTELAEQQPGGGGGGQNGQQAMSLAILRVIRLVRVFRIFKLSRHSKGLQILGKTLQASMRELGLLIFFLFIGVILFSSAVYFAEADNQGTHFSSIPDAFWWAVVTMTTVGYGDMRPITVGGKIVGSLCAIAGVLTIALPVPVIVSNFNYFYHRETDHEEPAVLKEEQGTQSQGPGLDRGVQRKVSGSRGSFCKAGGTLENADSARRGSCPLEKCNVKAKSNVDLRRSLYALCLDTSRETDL
T2 sequence (P51787 whole entry): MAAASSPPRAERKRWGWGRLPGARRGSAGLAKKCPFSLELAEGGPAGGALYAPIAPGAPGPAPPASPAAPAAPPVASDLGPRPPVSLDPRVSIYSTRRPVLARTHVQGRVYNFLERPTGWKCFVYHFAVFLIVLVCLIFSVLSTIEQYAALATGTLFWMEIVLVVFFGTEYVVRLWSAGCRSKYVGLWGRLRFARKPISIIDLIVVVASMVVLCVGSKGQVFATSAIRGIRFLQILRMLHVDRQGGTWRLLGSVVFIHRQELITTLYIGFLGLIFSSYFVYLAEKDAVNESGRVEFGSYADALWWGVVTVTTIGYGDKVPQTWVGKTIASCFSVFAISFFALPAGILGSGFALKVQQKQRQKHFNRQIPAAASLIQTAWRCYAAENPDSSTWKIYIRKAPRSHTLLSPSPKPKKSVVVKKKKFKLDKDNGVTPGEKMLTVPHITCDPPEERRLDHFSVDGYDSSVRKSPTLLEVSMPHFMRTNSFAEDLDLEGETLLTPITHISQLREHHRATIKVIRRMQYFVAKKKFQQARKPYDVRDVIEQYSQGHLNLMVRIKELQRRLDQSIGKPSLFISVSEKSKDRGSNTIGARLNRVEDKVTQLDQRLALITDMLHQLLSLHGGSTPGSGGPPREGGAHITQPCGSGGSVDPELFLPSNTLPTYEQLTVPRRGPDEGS
Chain of Voltage-gated inwardly rectifying potassium channel KCNH2 (Q12809 whole entry): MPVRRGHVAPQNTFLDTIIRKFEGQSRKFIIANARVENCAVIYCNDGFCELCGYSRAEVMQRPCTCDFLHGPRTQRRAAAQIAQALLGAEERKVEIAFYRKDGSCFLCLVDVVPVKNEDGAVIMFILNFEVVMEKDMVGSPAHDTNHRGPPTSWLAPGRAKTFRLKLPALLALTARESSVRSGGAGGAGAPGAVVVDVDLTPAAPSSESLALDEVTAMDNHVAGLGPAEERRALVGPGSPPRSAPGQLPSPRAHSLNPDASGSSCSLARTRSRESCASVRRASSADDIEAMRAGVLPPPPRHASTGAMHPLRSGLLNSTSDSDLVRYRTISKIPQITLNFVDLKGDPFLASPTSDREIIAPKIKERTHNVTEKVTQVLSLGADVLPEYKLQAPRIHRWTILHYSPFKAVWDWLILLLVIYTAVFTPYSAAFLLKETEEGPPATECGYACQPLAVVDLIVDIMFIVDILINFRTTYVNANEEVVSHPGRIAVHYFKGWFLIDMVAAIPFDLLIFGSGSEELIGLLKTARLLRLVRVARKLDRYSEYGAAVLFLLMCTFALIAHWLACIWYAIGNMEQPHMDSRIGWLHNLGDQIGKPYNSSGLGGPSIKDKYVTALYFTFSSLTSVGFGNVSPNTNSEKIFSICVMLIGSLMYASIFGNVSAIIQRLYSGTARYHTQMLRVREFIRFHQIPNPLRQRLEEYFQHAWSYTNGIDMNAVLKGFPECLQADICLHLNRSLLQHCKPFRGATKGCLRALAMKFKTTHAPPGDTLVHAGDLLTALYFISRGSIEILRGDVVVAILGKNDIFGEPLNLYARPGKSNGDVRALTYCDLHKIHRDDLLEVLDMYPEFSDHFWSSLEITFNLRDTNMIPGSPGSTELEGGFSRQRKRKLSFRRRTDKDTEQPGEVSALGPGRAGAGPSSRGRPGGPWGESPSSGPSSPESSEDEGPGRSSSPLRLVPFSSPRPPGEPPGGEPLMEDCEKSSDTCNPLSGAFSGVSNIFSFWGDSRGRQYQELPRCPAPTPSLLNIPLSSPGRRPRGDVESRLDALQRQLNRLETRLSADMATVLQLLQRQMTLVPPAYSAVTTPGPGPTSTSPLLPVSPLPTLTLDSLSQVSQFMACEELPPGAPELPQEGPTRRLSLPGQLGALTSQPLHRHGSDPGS

Regarding `CC(C)NCC(O)c1ccc(NS(C)(=O)=O)cc1` (centres undefined) [SOTALOL], the Activity result in [1] is recorded as “Toxic”. For the same compound, the Time in [2] was found to be 8.5 min.

Take `Nc1ccncc1`: the result in [3], in data set [4] and in data set [5] was Active.

Consider `COc1ccc(-c2cc(=O)c3c(O)cc(O)cc3o2)cc1` [ACACETIN], for which the result in [6], in [14], in data set [15] and in [16] was Active. The Activity entry in data set [7] is reported as “Non-Toxic”; in [13], “Non-Toxic”; in data set [20] it was 83%; in data set [22] it was 156 bpm; in data set [24] it was 10 - 25%; in data set [1] it was “Non-Toxic”. Moreover, the Activity entry in data set [26] and in [27] was “Non-Toxic” in each case. Besides, the inhibition result in [8], in [9] and in [17] was “Active” throughout. Besides, the inhibition entry in data set [10] was “Dose-dependent effect”. Also, the “inhibition (INH)” value is “Active” in [11], “Active” in [18], “Active” in [19] and “Dose-dependent effect” in [21]. In addition, the Time in data set [12] is 136 ms; in [23], 308.7 ms; in [2] it was 5.31 to 6.12 min; in [25] it was 4.3 to 7.11 min.

Source of the values: ChEMBL document CHEMBL3879906 (2013).
